Experimental data reported in the supplement of paper PMC8617591.

Legend:
[1] = system: Mycobacterium tuberculosis Erdman (autoluminescent); assay: total FIC50 (Loewe) at 50% inhibition, three-drug combination (log2); higher = more antagonistic
Protocol: (§1)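 DiaMOND equipotent three-drug combination dose responses (10 doses, 1.5- or 2-fold spacing, centred on IC90) against autoluminescent M. tuberculosis Erdman in 8 in vitro models. Read-out is OD600, or luminescence for the intracellular and dormancy models, normalised to untreated wells. Hill-fit Einf, AUC25 and GRinf are potency metrics; FIC50 and FIC90 are total Loewe fractional inhibitory concentrations as log2 (negative = synergy).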

[2] = system: Mycobacterium tuberculosis Erdman (autoluminescent); assay: total FIC90 (Loewe) at 90% inhibition, three-drug combination (log2); higher = more antagonistic
Protocol: as §1

[3] = system: Mycobacterium tuberculosis Erdman (autoluminescent); assay: Einf, fitted maximum growth inhibition of three-drug combination (fraction); higher = stronger maximal inhibition
Protocol: as §1

[4] = system: Mycobacterium tuberculosis Erdman (autoluminescent); assay: AUC25, normalised area under dose response up to IC25 (three-drug combination) (fraction (0-1)); higher = more potent at low dose
Protocol: as §1

[5] = system: Mycobacterium tuberculosis Erdman (autoluminescent); assay: GRinf, maximum normalised growth rate inhibition (three-drug combination) (unitless (-1 to 1)); higher = less effect (negative = killing)
Protocol: as §1

CC(=O)NC[C@H]1CN(c2ccc(N3CCOCC3)c(F)c2)C(=O)O1 [linezolid] + COc1c(N2C[C@@H]3CCCN[C@@H]3C2)c(F)cc2c(=O)c(C(=O)O)cn(C3CC3)c12 [moxifloxacin] + CO[C@H]1/C=C/O[C@@]2(C)Oc3c(C)c(O)c4c(O)c(c(/C=N/N5CCN(C)CC5)c(O)c4c3C2=O)NC(=O)/C(C)=C\C=C\[C@H](C)[C@H](O)[C@@H](C)[C@@H](O)[C@@H](C)[C@H](OC(C)=O)[C@@H]1C [rifampicin]
Conditions | AUC25, [4] | Einf, [3] | GRinf, [5] | total FIC50, [1] | total FIC90, [2]
in vitro model: acidic pH 5.7, time point: constant (~7 days, model-specific) | 0.0527 | 0.811 | -0.0255 | 0.498 | –
in vitro model: acidic pH 5.7, time point: terminal (~4-5 doublings, model-specific) | 0.0717 | 0.984 | -0.147 | 0.628 | 0.503
in vitro model: intracellular J774, time point: constant = terminal | – | 0.919 | -0.103 | – | 0.656

Conditions | AUC25, [4] | Einf, [3] | GRinf, [5] | total FIC50, [1] | total FIC90, [2]
in vitro model: butyrate, time point: constant (~7 days, model-specific) | 0.0848 | 0.857 | 0.177 | 0.137 | –
in vitro model: butyrate, time point: terminal (~4-5 doublings, model-specific) | 0.0684 | 0.929 | 0.128 | 0.112 | 0.0683
in vitro model: cholesterol 0.05 mM, time point: constant (~7 days, model-specific) | 0.156 | 0.709 | -0.119 | 0.272 | –
in vitro model: cholesterol 0.05 mM, time point: terminal (~4-5 doublings, model-specific) | 0.124 | 0.916 | -0.285 | 4.84 | -0.628
in vitro model: cholesterol-high 0.2 mM, time point: constant (~7 days, model-specific) | 0.0752 | 0.889 | -0.343 | 0.731 | -0.284
in vitro model: cholesterol-high 0.2 mM, time point: terminal (~4-5 doublings, model-specific) | 0.0984 | 1 | -0.901 | 0.947 | 0.931
in vitro model: dormancy (butyrate + nitrate, low O2), time point: constant (~7 days, model-specific) | 0.0613 | 0.873 | 0.239 | 1.14 | 0.815
in vitro model: dormancy (butyrate + nitrate, low O2), time point: terminal (~4-5 doublings, model-specific) | 0.0476 | 0.971 | -0.0219 | 0.897 | 0.88
in vitro model: standard 7H9 glycerol, time point: constant = terminal | 0.0568 | 0.839 | 0.261 | 0.691 | –
in vitro model: valerate, time point: constant (~7 days, model-specific) | 0.0669 | 0.803 | 0.0279 | 0.393 | –
in vitro model: valerate, time point: terminal (~4-5 doublings, model-specific) | 0.0324 | 0.928 | 0.0628 | 0.609 | 0.105

CC(=O)NC[C@H]1CN(c2ccc(N3CCOCC3)c(F)c2)C(=O)O1 [linezolid] + COc1c(N2C[C@@H]3CCCN[C@@H]3C2)c(F)cc2c(=O)c(C(=O)O)cn(C3CC3)c12 [moxifloxacin] + NC(=O)c1cnccn1 [pyrazinamide]
Conditions | AUC25, [4] | Einf, [3] | GRinf, [5] | total FIC50, [1] | total FIC90, [2]
in vitro model: acidic pH 5.7, time point: constant (~7 days, model-specific) | 0.0593 | 0.734 | -0.345 | -0.252 | –
in vitro model: acidic pH 5.7, time point: terminal (~4-5 doublings, model-specific) | 0.0649 | 0.955 | -0.38 | 1.52 | -0.8
in vitro model: intracellular J774, time point: constant = terminal | – | 0.939 | -0.17 | – | 0.559

Conditions | AUC25, [4] | Einf, [3] | GRinf, [5] | total FIC50, [1] | total FIC90, [2]
in vitro model: butyrate, time point: constant (~7 days, model-specific) | 0.108 | 0.891 | 0.0582 | 0.00706 | 2.34
in vitro model: butyrate, time point: terminal (~4-5 doublings, model-specific) | 0.0904 | 0.952 | 0.0307 | 0.0931 | 0.745
in vitro model: cholesterol 0.05 mM, time point: constant (~7 days, model-specific) | 0.145 | 0.704 | -0.234 | – | –
in vitro model: cholesterol 0.05 mM, time point: terminal (~4-5 doublings, model-specific) | 0.147 | 0.932 | -0.426 | 0.356 | –
in vitro model: cholesterol-high 0.2 mM, time point: constant (~7 days, model-specific) | 0.106 | 0.923 | -0.819 | 0.486 | –
in vitro model: cholesterol-high 0.2 mM, time point: terminal (~4-5 doublings, model-specific) | 0.115 | 1 | -1 | 0.334 | 0.717
in vitro model: dormancy (butyrate + nitrate, low O2), time point: constant (~7 days, model-specific) | 0.0721 | 0.855 | 0.269 | 0.651 | 0.461
in vitro model: dormancy (butyrate + nitrate, low O2), time point: terminal (~4-5 doublings, model-specific) | 0.0321 | 0.973 | -0.0525 | 0.786 | 0.354
in vitro model: standard 7H9 glycerol, time point: constant = terminal | 0.0843 | 0.962 | -0.271 | – | –
in vitro model: valerate, time point: constant (~7 days, model-specific) | 0.0976 | 0.87 | 0.12 | -0.0785 | –
in vitro model: valerate, time point: terminal (~4-5 doublings, model-specific) | 0.0603 | 0.921 | 0.0594 | 0.266 | 0.56

CC(=O)NC[C@H]1CN(c2ccc(N3CCOCC3)c(F)c2)C(=O)O1 [linezolid] + COc1c(N2C[C@@H]3CCCN[C@@H]3C2)c(F)cc2c(=O)c(C(=O)O)cn(C3CC3)c12 [moxifloxacin] + O=[N+]([O-])c1cn2c(n1)OC[C@@H](OCc1ccc(OC(F)(F)F)cc1)C2 [pretomanid]
Conditions | AUC25, [4] | Einf, [3] | GRinf, [5] | total FIC50, [1] | total FIC90, [2]
in vitro model: acidic pH 5.7, time point: constant (~7 days, model-specific) | 0.113 | 0.883 | -0.748 | 0.776 | –
in vitro model: acidic pH 5.7, time point: terminal (~4-5 doublings, model-specific) | 0.0579 | 0.945 | -0.404 | 1.08 | 0.694
in vitro model: intracellular J774, time point: constant = terminal | – | 0.954 | -0.659 | – | 1.38

Conditions | AUC25, [4] | Einf, [3] | GRinf, [5] | total FIC50, [1] | total FIC90, [2]
in vitro model: butyrate, time point: constant (~7 days, model-specific) | 0.0971 | 0.916 | 0.0148 | 0.594 | 0.801
in vitro model: butyrate, time point: terminal (~4-5 doublings, model-specific) | 0.0695 | 0.953 | 0.0166 | 0.499 | 0.736
in vitro model: cholesterol 0.05 mM, time point: constant (~7 days, model-specific) | 0.14 | 0.692 | -0.183 | 0.0017 | –
in vitro model: cholesterol 0.05 mM, time point: terminal (~4-5 doublings, model-specific) | 0.134 | 0.908 | -0.206 | 0.534 | 0.307
in vitro model: cholesterol-high 0.2 mM, time point: constant (~7 days, model-specific) | 0.121 | 0.923 | -0.45 | 0.187 | 1.91
in vitro model: cholesterol-high 0.2 mM, time point: terminal (~4-5 doublings, model-specific) | 0.117 | 0.989 | -0.722 | 0.117 | 0.839
in vitro model: dormancy (butyrate + nitrate, low O2), time point: constant (~7 days, model-specific) | 0.0437 | 0.879 | 0.219 | 0.988 | 0.456
in vitro model: dormancy (butyrate + nitrate, low O2), time point: terminal (~4-5 doublings, model-specific) | 0.0489 | 0.979 | -0.165 | 1.01 | 0.983
in vitro model: standard 7H9 glycerol, time point: constant = terminal | 0.0706 | 0.962 | -0.151 | 0.466 | 0.766
in vitro model: valerate, time point: constant (~7 days, model-specific) | 0.138 | 0.861 | -0.229 | -0.643 | –
in vitro model: valerate, time point: terminal (~4-5 doublings, model-specific) | 0.0994 | 0.918 | -0.0505 | -0.495 | 0.791
